Literature values, collected in patent US5364629A, “Device and method for enhanced administration of physostigmine” (priority 1991, dated 1994).

Tests used:
[1] = early observation, myasthenia gravis background
[2] = Davis, et al, Science, Volume 201, p. 272 (1978)
[3] = systemic use
[4] = tablets
[5] = American Journal of Psychiatry, July 1979

CNC(=O)Oc1ccc2c(c1)[C@]1(C)CCN(C)[C@@H]1N2C [Physostigmine, physostigmine]
strength of muscular contraction [1]: increased strength of muscular contraction
retrieval of information from long-term memory [2]: retrieval of information from long-term memory was also improved
storage of information into long-term memory [2]: significantly enhanced storage of information into long-term memory
therapeutic window [3]: narrow therapeutic window
drug blood levels for multiple oral doses [4]: ranging from a maximum above the required level (and possibly in the toxic range) to a minimum which may be below the effective dose
effect on tardive dyskinesia [5]: positive: therapeutic effect on tardive dyskinesia
